According to publication PMC12508156, “Non-canonical dihydrolipoyl transacetylase promotes chemotherapy resistance via mitochondrial tetrahydrofolate signaling” (Nature Communications, 2025):
“And” between values parts separate entries of the source, which are not always exact repeats. Equal values may be shown once.

How the values were obtained:
[1] = test system: cisplatin-resistant cancer cells; assay: Drug sensitivity of cancer cells (apoptosis, cell viability); assay type: cell-based, human; conditions: for sensitization of cancer cells to the agent by impairment of DLAT: KB-3-1cisR and A549cisR, DLAT knockdown vs control, sublethal doses 48 h: 50 μM carboplatin, 10 nM gemcitabine, 10 μM etoposide, 0.5 μM pemetrexed, 3 nM paclitaxel, 1 μM erlotinib; for sensitization of cancer cells to cisplatin treatment: 10 μM inhibitor and sublethal doses of cisplatin, 48 h (Fig. 4e, f)
Method: Cell viability was determined using the CellTiter-Glo Luminescent Cell Viability Assay. […] Subsequently, the cells were cultured in complete medium for an additional 10 days, and the resulting colonies were visualized by staining with crystal violet and quantified using ImageJ software. For cell cycle analysis, cells fixed with 70% ethanol were stained with RNase A (100 µg/mL) and propidium iodide (50 μg/ml) for 30 min at 37 °C, and DNA content distribution was measured using flow cytometry (BD Symphony A3) and analyzed with FlowJo software (v10.9). Apoptotic cell death was assessed via FITC-conjugated annexin V and propidium iodide staining.

MT-CO2 = assay: MT-CO1, MT-CO2, COXIV expression (immunoblot, quantitative RT-PCR); assay type: cell-based, human
Method: Apoptosis (top) and cell viability (bottom) were determined. 10-formyl-THF rescues cisplatin-resistant cell growth (c) and MT-CO2 expression (d) in cells lacking K44 MTHFD2 acetylation. Cisplatin-treated cells expressing K44R MTHFD2 were subjected to 10 μM 10-formyl-THF for 24 h followed by annexin V staining, cell viability assay, and assessment of MT-CO1, MT-CO2, and COXIV levels by immunoblotting and quantitative RT-PCR. Cells expressing the acetyl-mimetic mutant form of MTHFD2 K44Q were included for comparison. Effect of MT-CO2 overexpression on cisplatin-resistant cell growth in cells lacking K44 MTHFD2 acetylation (e) or DLAT (f) by K44R MTHFD2 expression or DLAT knockdown, respectively. Data are mean ± SD from 4 independent biological replicates for (d) and 3 for (a–c, e, f). P values were determined by one-way ANOVA. Source data are provided as a Source Data file.
Supplementary Fig. 8: POLRMT is required for 10-formyl-THF-induced MT-CO2 expression in cisplatin-resistant cells. […]
absence of 10-formyl-THF (10 µM) for 24 h. The levels of MT-CO2, mitochondrial transcription factors, and myc-MTHFD2 were assessed by immunoblotting. […] MT-CO2 mRNA and protein levels were assessed by quantitative RT-PCR and immunoblotting, respectively. […] P values were determined by one-way ANOVA. […]

KB-3-1cisR cells = assay: Apoptotic cell death (annexin V/PI staining); assay type: cell-based, human; conditions: KB-3-1cisR; 5 mM DCA and/or sublethal cisplatin, 48 h; n=1-3: biological replicates
A549cisR cells = assay: Apoptotic cell death (annexin V/PI staining); assay type: cell-based, human; conditions: A549cisR; 5 mM DCA and/or sublethal cisplatin, 48 h; n=1-3: biological replicates
[2] = test system: A549cisR and KB-3-1cisR cells; assay: Senescence (p21) and autophagy (LC3-I/II, p62) markers, cell cycle; assay type: cell-based, human; conditions: 0.5 mM NAC, 24 h, DLAT shRNA and sublethal cisplatin
Method: 1cisR cells were transduced with DLAT-targeting shRNA and treated with sublethal doses of […]
antioxidant N-acetylcysteine (NAC). (a) Western blot analysis of p21 waf1/cip1 expression as a marker of cellular senescence. (b) Western blot analysis of LC3-I/II and p62 as markers of autophagy. (c) Cell cycle distribution was assessed by flow cytometry following propidium iodide staining. (d) Intracellular ROS levels were measured using the H2DCFDA probe. Error bars represent SD and are from 3 independent biological replicates for (c,d). P values were determined by one-way ANOVA.
(1 picture or pasted object on this page, not shown here)

Bcl-xL = assay: Immunoblotting of apoptosis-associated proteins; assay type: cell-based, human; conditions: NAC in cisplatin-treated DLAT knockdown cells (Fig. 3h)
Method: Cellular ROS (upper), apoptosis (middle), and cell viability (lower) were measured. […] Mito-TEMPO (10 μM) or flag-tagged catalase was introduced in cisplatin-treated cells. Mitochondrial ROS and cytoplasmic hydrogen peroxide were measured by mitoSOX staining and luminescence detection, respectively. g Immunoblotting of apoptosis-associated proteins. […] Fold changes were obtained by comparing the DLAT knockdown group to the control group. […] P values were determined by two-tailed Student’s t-test (a, i) and one-way ANOVA for the rest. Source data are provided as a Source Data file.

MTHFD1 = conditions: concurrently inhibiting the ubiquitous isozyme MTHFD1; cited from earlier work
Text: Inhibitors targeting components of PDC include a non-selective PDK inhibitor, dichloroacetate (DCA)[39]. However, to the best of our knowledge, no specific inhibitor is available to target non-classical DLAT signaling that is independent of PDC. LY345899 and DS18561882 have been reported to be MTHFD2 inhibitors, and are a folate analog and a tricyclic coumarin-based compound that competitively binds to the substrate binding site[40]–[42]. However, these inhibitors are unselective, concurrently inhibiting the ubiquitous isozyme MTHFD1 and thus posing a potential safety risk; therefore, further ...

DLAT = DLAT mRNA, DLAT protein and cell viability after elesclomol; assay type: cell-based, human; conditions: increasing doses up to 1 µM for 48 h
Method: Elesclomol was administered at increasing doses up to 1 µM for 48 h. The levels of DLAT mRNA (a), DLAT protein (b), and cell viability (c) are shown. Error bars represent the standard deviation (SD) and from 3 independent biological replicates for (a,c). P values were obtained by one-way ANOVA. 1 (1 picture or pasted object on this page, not shown here)

For `N.N.O=C([O-])C1(C(=O)[O-])CCC1.[Pt+2]` [carboplatin], the “sensitization of cancer cells to the agent by impairment of DLAT” value (“sensitization of cancer cells … of DLAT” for short) [1] was “sensitized”.

For `Nc1ccn([C@@H]2O[C@H](CO)[C@@H](O)C2(F)F)c(=O)n1` [gemcitabine], the “sensitization of cancer cells … of DLAT” value [1] was “sensitized”.

With `Cc1ccccc1-c1cc(=O)oc2cc(OC(C)C(=O)N(C)C)ccc12` (stereo not drawn) [IMT1] the “MT-CO2 expression induced by 10-formyl-THF” value (MT-CO2; IMT1 5 µM and 10-formyl-THF 10 µM, 24 h (Supplementary Fig. 8b)) was “mitigated”.

In the case of `O=C(O)C(Cl)Cl` [DCA, dichloroacetate], the Apoptotic death (KB-3-1cisR cells) is reported as 2.5 and 4.8 and 4.4, the “survival of cisplatin-resistant cancer cells” value ([1]; 5 mM DCA and cisplatin, 48 h, A549cisR and KB-3-1cisR (Fig. 2e)) is reported as “no significant effect” and the Apoptotic death (A549cisR cells) is reported as 9.2 and 6.2.

In the case of `CC(=O)O[C@H]1C(=O)[C@@]2(C)[C@H]([C@H](OC(=O)c3ccccc3)[C@]3(O)C[C@H](OC(=O)[C@H](O)[C@@H](NC(=O)c4ccccc4)c4ccccc4)C(C)=C1C3(C)C)[C@]1(OC(C)=O)CO[C@@H]1C[C@@H]2O` [paclitaxel], the “sensitization of cancer cells … of DLAT” value [1] is reported as “sensitized”.

In the case of `CC(=O)N[C@@H](CS)C(=O)O` [NAC, N-acetyl-L-cysteine], the “cisplatin-mediated ROS and apoptosis in DLAT knockdown cells” value ([1]; NAC 0.5 mM, cisplatin-treated DLAT knockdown cells (Fig. 3d)) is reported as “significantly lowered”, the “senescence, autophagy, or cell cycle progression” value [2] is reported as “did not alter” and the Bcl-xL expression (Bcl-xL) is reported as “partially restored”.

In the case of `C#Cc1cccc(Nc2ncnc3cc(OCCOC)c(OCCOC)cc23)c1` [erlotinib], the “sensitization of cancer cells … of DLAT” value [1] is reported as “not”.

In the case of `Nc1nc2c(c(=O)[nH]1)N1C(=O)N(c3ccc(C(=O)N[C@@H](CCC(=O)O)C(=O)O)cc3)CC1CN2` (stereo partly drawn) [LY345899], the “selectivity versus isozyme MTHFD1” value (MTHFD1) is listed as “unselective” and the “sensitization of cancer cells to cisplatin treatment” value [1] is listed as “sensitized”.

In the case of `CN(NC(=O)CC(=O)NN(C)C(=S)c1ccccc1)C(=S)c1ccccc1` [elesclomol], the “DLAT levels (gene and protein)” value (DLAT) is reported as “did not alter”.

In the case of `Cc1c(N2CCN(C)[C@@H](C)C2)ccc2c3c(c(=O)oc12)CN(C(=O)c1ccc(NS(C)(=O)=O)c(OC(F)(F)F)c1)CC3` [DS18561882], the “selectivity versus isozyme MTHFD1” value (MTHFD1) is given as “unselective” and the “sensitization of cancer cells to cisplatin treatment” value [1] is given as “sensitized”.

For `COc1cc([C@@H]2c3cc4c(cc3[C@@H](O[C@@H]3O[C@@H]5CO[C@@H](C)O[C@H]5[C@H](O)[C@H]3O)[C@H]3COC(=O)[C@H]23)OCO4)cc(OC)c1O` [etoposide], the “sensitization of cancer cells … of DLAT” value [1] was “sensitized”.

With `Nc1nc2[nH]cc(CCc3ccc(C(=O)N[C@@H](CCC(=O)O)C(=O)O)cc3)c2c(=O)[nH]1` [pemetrexed] the “sensitization of cancer cells … of DLAT” value [1] was “sensitized”.

In the case of `CC1(C)CC(NC(=O)C[P+](c2ccccc2)(c2ccccc2)c2ccccc2)CC(C)(C)N1[O]` [mito-TEMPO], the “elevated apoptosis and attenuated cell viability induced by DLAT loss and cisplatin” value ([1]; Mito-TEMPO 10 μM (Fig. 3e)) is reported as “reversed”.

For `Nc1nc2c(c(=O)[nH]1)NC(CN(C=O)c1ccc(C(=O)N[C@@H](CCC(=O)O)C(=O)O)cc1)CN2` (stereo partly drawn) [10-formyl-THF, 10-Formyltetrahydrofolate], the “attenuated cell viability and elevated apoptosis induced by cisplatin and DLAT loss” value ([1]; supplementation at physiological concentrations, 48 h, DLAT knockdown cells under sublethal cisplatin (Fig. 6a, b)) was “reversed” and the “MT-CO2 expression in MTHFD2 K44R cells” value (MT-CO2; 10 μM 10-formyl-THF, 24 h, cisplatin-treated cells (Fig. 6d)) was “restored”.
